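Five compound concentrations were applied to cells in 96-well plates for 48 hours; endpoints were derived by simple linear interpolation of the resulting dose-response curve. At the GI50, growth is halved.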 The source made the active and inactive calls. No stated cut-off is given here; in the data, active = GI50 up to about 1.1 µM and inactive = higher.
How the values were obtained:
Test in all cases: NCI tumour cell line growth inhibition, 48 h
[1] = test system: EKVX
[2] = test system: RPMI-8226
[3] = test system: SF-295
[4] = test system: HCT-116
[5] = test system: LOX IMVI
[6] = test system: SF-268
[7] = test system: HT-29
[8] = test system: UACC-257
[9] = test system: NCI/ADR-RES
[10] = test system: SNB-75
[11] = test system: SK-OV-3
[12] = test system: K562
[13] = test system: OVCAR-4
[14] = test system: COLO 205
[15] = test system: Malme-3M
[16] = test system: IGROV-1
[17] = test system: MDA-N
[18] = test system: MOLT-4
[19] = test system: OVCAR-3
[20] = test system: CCRF-CEM

SMILES: CC(=O)Nc1ccc2c3c(cc(O)c2c1)N(C(=O)CCCCCC(=O)N1CC(CCl)c2c1cc(O)c1cc(NC(C)=O)ccc21)CC3CCl (stereo not drawn)
- GI50 [1]: 0.193 µM (active)
- GI50 [2]: 0.0296 µM (active)
- GI50 [3]: 0.0156 µM (active)
- GI50 [4]: 0.0101 µM (active)
- GI50 [5]: < 0.01 µM (active)
- GI50 [6]: < 0.01 µM (active)
- GI50 [7]: 0.0321 µM (active)
- GI50 [8]: 0.0168 µM (active)
- GI50 [9]: 1.38 µM (inactive)
- GI50 [10]: < 0.01 µM (active)
- GI50 [11]: 0.0405 µM (active)
- GI50 [12]: 0.0625 µM (active)
- GI50 [13]: 0.181 µM (active)
- GI50 [14]: 0.016 µM (active)
- GI50 [15]: 0.0125 µM (active)
- GI50 [16]: 0.0292 µM (active)
- GI50 [17]: 0.0164 µM (active)
- GI50 [18]: < 0.01 µM (active)
- GI50 [19]: 0.0172 µM (active)

SMILES: NC(=O)c1csc(C2OC(CO)C(O)C2O)n1 (stereo not drawn)
- GI50 [1]: 543 µM (inactive)
- GI50 [2]: 150 µM (inactive)
- GI50 [4]: 22.6 µM (inactive)
- GI50 [20]: 7.8 µM (inactive)
- GI50 [5]: 267 µM (inactive)
- GI50 [6]: 57.5 µM (inactive)
- GI50 [7]: 40.3 µM (inactive)
- GI50 [8]: 4400 µM (inactive)
- GI50 [9]: 57 µM (inactive)
- GI50 [11]: 61.8 µM (inactive)
- GI50 [12]: 4.26 µM (inactive)
- GI50 [13]: 13.7 µM (inactive)
- GI50 [14]: 7.45 µM (inactive)
- GI50 [15]: 1640 µM (inactive)
- GI50 [16]: 42.4 µM (inactive)
- GI50 [17]: 35.1 µM (inactive)
- GI50 [18]: 5.56 µM (inactive)
- GI50 [19]: 19.6 µM (inactive)

SMILES: Cn1ncc(NCCn2cnc3c2c(=O)n(C)c(=O)n3C)c(Cl)c1=O
- GI50 [1]: > 100 µM (inactive)
- GI50 [2]: > 100 µM (inactive)
- GI50 [3]: > 100 µM (inactive)
- GI50 [4]: > 100 µM (inactive)
- GI50 [20]: > 100 µM (inactive)
- GI50 [5]: > 100 µM (inactive)
- GI50 [6]: > 100 µM (inactive)
- GI50 [7]: > 100 µM (inactive)
- GI50 [8]: > 100 µM (inactive)
- GI50 [9]: > 100 µM (inactive)
- GI50 [11]: > 100 µM (inactive)
- GI50 [12]: > 100 µM (inactive)
- GI50 [13]: > 100 µM (inactive)
- GI50 [14]: > 100 µM (inactive)
- GI50 [15]: > 100 µM (inactive)
- GI50 [16]: > 100 µM (inactive)
- GI50 [17]: > 100 µM (inactive)
- GI50 [18]: > 100 µM (inactive)
- GI50 [19]: > 100 µM (inactive)

SMILES: COc1ccc(Nc2nc3ccc(C(F)(F)F)cc3nc2C(=O)O)cc1OC
- GI50 [1]: 36.2 µM (inactive)
- GI50 [3]: 24 µM (inactive)
- GI50 [4]: 25.9 µM (inactive)
- GI50 [5]: 28.8 µM (inactive)
- GI50 [6]: 34.1 µM (inactive)
- GI50 [7]: 38.4 µM (inactive)
- GI50 [8]: 30.6 µM (inactive)
- GI50 [9]: 20.2 µM (inactive)
- GI50 [10]: 35.8 µM (inactive)
- GI50 [12]: 29 µM (inactive)
- GI50 [13]: 40.6 µM (inactive)
- GI50 [14]: 43 µM (inactive)
- GI50 [15]: 31.7 µM (inactive)
- GI50 [16]: 34.3 µM (inactive)
- GI50 [17]: 34.7 µM (inactive)
- GI50 [18]: 16.1 µM (inactive)
- GI50 [19]: 17.9 µM (inactive)

SMILES: CC1CN=C(Nc2ccccc2)S1 (stereo not drawn)
- GI50 [1]: > 100 µM (inactive)
- GI50 [2]: > 100 µM (inactive)
- GI50 [3]: > 100 µM (inactive)
- GI50 [4]: > 100 µM (inactive)
- GI50 [20]: > 100 µM (inactive)
- GI50 [5]: > 100 µM (inactive)
- GI50 [6]: > 100 µM (inactive)
- GI50 [7]: > 100 µM (inactive)
- GI50 [8]: > 100 µM (inactive)
- GI50 [9]: > 100 µM (inactive)
- GI50 [10]: > 100 µM (inactive)
- GI50 [11]: > 100 µM (inactive)
- GI50 [12]: > 100 µM (inactive)
- GI50 [14]: > 100 µM (inactive)
- GI50 [15]: > 100 µM (inactive)
- GI50 [16]: > 100 µM (inactive)
- GI50 [17]: > 100 µM (inactive)
- GI50 [18]: > 100 µM (inactive)
- GI50 [19]: > 100 µM (inactive)

SMILES: O=[N+]([O-])c1cccc(-c2nc(-c3ccccc3)c(-c3ccccc3)[nH]2)c1
- GI50 [1]: > 100 µM (inactive)
- GI50 [2]: > 100 µM (inactive)
- GI50 [3]: > 100 µM (inactive)
- GI50 [4]: > 100 µM (inactive)
- GI50 [20]: > 100 µM (inactive)
- GI50 [5]: > 100 µM (inactive)
- GI50 [6]: > 100 µM (inactive)
- GI50 [8]: > 100 µM (inactive)
- GI50 [9]: > 100 µM (inactive)
- GI50 [11]: > 100 µM (inactive)
- GI50 [12]: > 100 µM (inactive)
- GI50 [14]: > 100 µM (inactive)
- GI50 [15]: > 100 µM (inactive)
- GI50 [16]: > 100 µM (inactive)
- GI50 [17]: > 100 µM (inactive)
- GI50 [18]: > 100 µM (inactive)
- GI50 [19]: > 100 µM (inactive)

SMILES: Fc1ccc(Nc2nc(Cl)c3nc[nH]c3n2)cc1Cl
- GI50 [1]: 67.8 µM (inactive)
- GI50 [2]: > 100 µM (inactive)
- GI50 [3]: > 100 µM (inactive)
- GI50 [4]: > 100 µM (inactive)
- GI50 [20]: > 100 µM (inactive)
- GI50 [5]: 75.3 µM (inactive)
- GI50 [6]: 35.6 µM (inactive)
- GI50 [7]: > 100 µM (inactive)
- GI50 [8]: > 100 µM (inactive)
- GI50 [9]: 37.8 µM (inactive)
- GI50 [10]: 41.4 µM (inactive)
- GI50 [11]: 87.1 µM (inactive)
- GI50 [13]: > 100 µM (inactive)
- GI50 [14]: > 100 µM (inactive)
- GI50 [15]: > 100 µM (inactive)
- GI50 [16]: 84.9 µM (inactive)
- GI50 [17]: > 100 µM (inactive)
- GI50 [18]: > 100 µM (inactive)
- GI50 [19]: > 100 µM (inactive)

From ChEMBL document CHEMBL1201862, “PubChem BioAssay data set” (2004)
